Article PMC10193966, “Structure of WNT inhibitor adenomatosis polyposis coli down-regulated 1 (APCDD1), a cell-surface lipid-binding protein” (Proceedings of the National Academy of Sciences of the …, 2023)

Biological target: T1, eMBP-APCDD1 (APCDD1 ECD; lipid in ABD2) (Mus musculus, UniProt Q3U128)
T1 construct: extracellular domain residues 47-481, N-terminal engineered MBP fusion, C-terminal 8xHis; secreted from HEK293T (kifunensine); Endo-F1 and carboxypeptidase A/B treated in situ; single-span membrane protein without TM
T1 sequence (Q3U128 47-481): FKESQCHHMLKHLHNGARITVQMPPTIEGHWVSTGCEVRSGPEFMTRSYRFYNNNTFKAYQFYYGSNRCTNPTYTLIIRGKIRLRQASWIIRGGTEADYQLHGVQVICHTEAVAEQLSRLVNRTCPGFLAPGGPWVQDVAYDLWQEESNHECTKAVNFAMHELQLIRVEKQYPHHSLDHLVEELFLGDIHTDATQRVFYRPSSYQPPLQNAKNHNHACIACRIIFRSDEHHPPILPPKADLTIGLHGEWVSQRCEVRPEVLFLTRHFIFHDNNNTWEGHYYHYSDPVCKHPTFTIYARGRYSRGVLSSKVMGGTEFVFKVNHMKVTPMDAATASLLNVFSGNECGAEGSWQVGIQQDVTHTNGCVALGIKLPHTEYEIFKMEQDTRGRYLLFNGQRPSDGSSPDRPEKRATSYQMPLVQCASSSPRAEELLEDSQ
Test: X-ray crystal structure ([…] Å); HPLC/MS of extract from purified APCDD1
Type: binding
Settings: co-purified lipid from HEK293 expression with 2% serum; ABD2 hydrophobic pocket, chains A and C; MS sample named only purified APCDD1

Structure (SMILES): CCCCCCCCCCCCCCCCCC(=O)O [stearic acid]
- X-ray crystal structure (2.3 Å); HPLC/MS of extract from purified APCDD1: This analysis revealed stearic acid, a C18 fatty acid
